Measurements: patent US3937801A, “Reducing the incidence of gastrointestinal side effects during the treatment of inflammatory conditions with antiinflammatory drugs” (priority 1973, dated 1976)
Several values for one entry are separate records, joined by “and”; a condition that tells them apart may be missing. Equal entries are not always repeated. Where two headings read alike, the source gives them in different places.

Key:
[1] = test system: indomethacin-induced ulcers; test: indomethacin-induced ulcer formation in rats (procedure of Lee et al.); format: in vivo, rat; details: for ED50: po; for Relative Potency ± S.E.M.: relative to 2-(3-hydroxy-3-methyloctyl)-5-oxocyclopentaneheptanoic acid, procedure of Example 1
From the text: The gastrointestinal side effect inhibiting property of the compositions of the present invention are demonstrable in standard pharmacological tests. For example, in procedures similar to the in vivo test described by Y. H. Lee et al., cited above, for evaluating the effects of a test compound on indomethacin-induced ulcers in the rat, the compounds of formula 1 are shown to be effective, see Examples 1 and 2.
By following the procedure of Lee et al., cited above, for the production of the indomethacin-induced ulcer in rats, the property of the compounds of formula 1 to inhibit such ulcers is readily demonstrable. More specifically: male albino rats (170 - 190 g; Sprague-Dawley strain, Canadian Breeding Laboratories), caged individually, were fasted 24 hr with free access to water until the start of the experiment. Indomethacin was given intraperitoneally. The animals were killed 5 hr later and the ulcer formation in the glandular portion of the stomach determined. The compound of formula 1 was administered perorally immediately after the indomethacin. The percent inhibition of ulcer formation versus the semilogarithm of the dose (mg/kg) was plotted and the dose at which 50% inhibition occurred (ED50) was read from the graph.
Analysis of variance and regression study were used in the evaluation of the data.
Indomethacin was administered (0.5 ml) as an aqueous suspension (2 drops of polysorbate 80 per 14 ml of H2 O). Polysorbate 80 is a mixture of sorbitol and its anhydrides copolymerized with ethylene oxide. The compounds of formula 1 were given (0.2 ml) in a 0.2% sodium carboxymethyl cellulose aqueous suspension.
The results of such a test for 2-(3-hydroxy-3-methyloctyl)-5-oxocyclopentaneheptanoic acid to inhibit the ulcer formation induced by 20 mg/kg i.p. of indomethacin are given in the following table. For comparative purposes the results obtained for propantheline bromide are also included.
By following the procedure of Example 1 the effects of compounds of formula 1 other than 2-(3-hydroxy-3-methyloctyl)-5-oxocyclopentaneheptanoic acid on indomethacin-induced ulcers are demonstrable. Accordingly, the results obtained with such other compounds of formula 1 are exemplified by the following list in which the relative potency of each compound with respect to 2-(3-hydroxy-3-methyloctyl)-5-oxocyclopentaneheptanoic acid is noted.

gastric acid secretion [2] = test: inhibition of gastric acid secretion in the rat (method of Lippmann); format: in vivo; details: unit inferred, read-out: Ed50 for inhibiting gastric acid secretion
Description: A comparison of the ED50 for inhibiting indomethacin-induced ulcers and the ED50 for inhibiting gastric acid secretion for compounds of formula 1 is exemplified in the following list. Both ED50 's are determined in the rat. The ED50 for inhibiting indomethacin-induced ulcers is obtained according to the method of Example 1. The ED50 for inhibiting gastric acid secretion is obtained according to the method of Lippmann, cited above.

diarrhea = diarrhea in female mice or rats, peroral; format: in vivo, mouse; details: 60 minutes; for diarrheal effect: female mice, 240 mg/kg peroral
[3] = test system: phenylbutazone-induced ulcers; test: phenylbutazone-induced ulcer formation in rats; format: in vivo, rat; details: for % Inhibition of ulcer formation / Ulcers Formed, Mean ± S.E.M.: phenylbutazone 300 mg/kg p.o., 18 hr
[4] = cited from earlier work; for stability: natural prostaglandins, T.O. Oesterling et al.
[5] = test system: indomethacin-induced ulcers; details: cited from earlier work
ulcers = details: man; N.O. Rothermich 1966; cited from earlier work
diarrheal effect = details: larger doses; Misiewicz et al. 1969; cited from earlier work
gastric acid secretion [6] = details: W. Lippmann 1971; cited from earlier work
[7] = 5 h, rat, method of Example 1 (dose in mg/kg there), unit inferred, read-out: ED50 for inhibiting indomethacin-induced ulcer
[8] = Rattus norvegicus, indomethacin 20 mg/kg i.p., 5 hr, read-out: ED50 (dose at which 50% inhibition of ulcer formation occurred)

CCCCC(C)(C)C(O)C=C[C@@H]1CCC(=O)[C@H]1C/C=C\CCCC(=O)O (relative stereo) [trans,cis-7-[2-(3-Hydroxy-4,4-dimethyl-1-octenyl)-5-oxocyclopentyl]-5-heptenoic acid]
ED50 [1, 7]: ~0.02 mg/kg
Relative Potency ± S.E.M. [1]: 4.8
ED50 (gastric acid secretion [2]): ~1 mg/kg

CCCCCC(O)C=C[C@@H]1CCC(=O)[C@H]1CCCCCCC(=O)O (relative stereo) [trans-2-(3-Hydroxy-1-octenyl)-5-oxocyclopentaneheptanoic acid]
Relative Potency ± S.E.M. [1]: 0.74 ± 0.20

CCCCCC(C)(O)C=C[C@@H]1CCC(=O)[C@H]1CCCCCCC(=O)O (relative stereo) [trans-2-(3-Hydroxy-3-methyl-1-octenyl)-5-oxocyclopentaneheptanoic acid]
Relative Potency ± S.E.M. [1]: 1.07 ± 0.33

CCCCCC(O)CC[C@@H]1CCC(=O)[C@H]1CCCCCCC(=O)O (relative stereo) [trans-2-(3-Hydroxyoctyl)-5-oxocyclopentaneheptanoic acid]
Relative Potency ± S.E.M. [1]: 0.45 ± 0.12 and 0.64 ± 0.20

O=C(O)CCCCCC[C@@H]1C(=O)CC[C@H]1C=CC(O)CC1CCCCC1 (relative stereo) [trans-2-(4-Cyclohexyl-3-hydroxy-1-butenyl)-5-oxocyclopentaneheptanoic acid]
Relative Potency ± S.E.M. [1]: 0.13 ± 0.06

CCCCCC(O)C=C[C@@H]1CCC(=O)[C@H]1C/C=C\CCCC(=O)O (single isomer, unassigned) [trans,cis-7-[2-(3-Hydroxy-1-octenyl)-5-oxocyclopentyl]-5-hep] [trans,cis-7-[2-(3-Hydroxy-1-octenyl)-5-oxocyclopentyl]-5-heptenoic acid]
Relative Potency ± S.E.M. [1]: 0.37 ± 0.21 and 0.37 ± 0.14

CCCCCC(C)(O)CCC1CCC(=O)C1CCCCCCC(=O)O (single isomer, unassigned; (+)) [(+)-2-(3-Hydroxy-3-methyloctyl)-5-oxocyclopentaneheptanoic a] [(+)-2-(3-Hydroxy-3-methyloctyl)-5-oxocyclopentaneheptanoic acid]
Relative Potency ± S.E.M. [1]: 1.02 ± 0.42
diarrheal effect (diarrhea): do not cause an appreciable diarrheal effect

CCCCCC(C)(O)CCC1CCC(=O)C1CCCCCCC(=O)O (single isomer, unassigned; (+)) [(+)-2-(3-Hydroxy-3-methyloctyl)-5-oxocyclopentaneheptanoic acid]
ED50 [1, 7]: 0.11 mg/kg

CCCCCC(C)(O)CCC1CCC(=O)C1CCCCCCC(=O)O (single isomer, unassigned; (-)) [(-)-2-(3-Hydroxy-3-methyloctyl)-5-oxocyclopentaneheptanoic a] [(-)-2-(3-Hydroxy-3-methyloctyl)-5-oxocyclopentaneheptanoic acid]
ED50 for inhibiting indomethacin-induced ulcer ([1]; rat, method of Example 1 (dose in mg/kg there), unit inferred, 300 min): 0.11 mg/kg
Relative Potency ± S.E.M. [1]: 1.01 ± 0.40
diarrheal effect (diarrhea): do not cause an appreciable diarrheal effect

CCCCCC(C)(O)CCC1CCC(=O)C1CCCCCCC(=O)O (stereo not shown) [2-(3-hydroxy-3-methyloctyl)-5-oxocyclopentaneheptanoic acid]
% Inhibition of ulcer formation ([3]; 7.5 mg/kg p.o.): 24%
Ulcers Formed, Mean ± S.E.M. ([3]; 7.5 mg/kg p.o., n=10): 4.1 ± 1.0
% Inhibition of ulcer formation ([3]; 15 mg/kg p.o.): 48%
Ulcers Formed, Mean ± S.E.M. ([3]; 15 mg/kg p.o., n=9): 2.8 ± 0.6
% Inhibition of ulcer formation ([3]; 30 mg/kg p.o.): 78%
Ulcers Formed, Mean ± S.E.M. ([3]; 30 mg/kg p.o., n=9): 1.2 ± 0.5
ED50 ([3]; Rattus norvegicus, po, over an 18 hr period): ~15 mg/kg
% Inhibition of ulcer formation ([1]; 0.075 mg/kg p.o., indomethacin 20 mg/kg i.p., 5 hr): 43%
Ulcers Formed, Mean ± S.E.M. ([1]; 0.075 mg/kg p.o., indomethacin 20 mg/kg i.p., 5 hr, n=9, P < 0.01): 5.9 ± 0.8
% Inhibition of ulcer formation ([1]; 0.15 mg/kg p.o., indomethacin 20 mg/kg i.p., 5 hr): 56%
Ulcers Formed, Mean ± S.E.M. ([1]; 0.15 mg/kg p.o., indomethacin 20 mg/kg i.p., 5 hr, n=9, P < 0.01): 4.6 ± 0.6
% Inhibition of ulcer formation ([1]; 0.30 mg/kg p.o., indomethacin 20 mg/kg i.p., 5 hr): 69%
Ulcers Formed, Mean ± S.E.M. ([1]; 0.30 mg/kg p.o., indomethacin 20 mg/kg i.p., 5 hr, n=9, P < 0.001): 3.2 ± 0.5
ED50 [1, 8]: 0.11 mg/kg
ED50 [1, 7]: 0.11 mg/kg
ED50 (gastric acid secretion [2]): 4.3 mg/kg
diarrheal effect (diarrhea): do not cause an appreciable diarrheal effect

CCCCC[C@H](O)/C=C/[C@@H]1[C@@H](CCCCCCC(=O)O)[C@@H](O)C[C@H]1O [PGF1α]
stability [4]: relatively unstable

COc1ccc2c(c1)c(CC(=O)O)c(C)n2C(=O)c1ccc(Cl)cc1 [indomethacin]
correlation between dosage and occurrence of ulcers ([5]; rat, Lee et al.): found a similar correlation in the rat
correlation between dosage and occurrence of ulcers (ulcers): found a correlation between indomethacin dosage and the occurence of ulcers in man

CC(C)[N+](C)(CCOC(=O)C1c2ccccc2Oc2ccccc21)C(C)C [propantheline bromide, reference compound]
% Inhibition of ulcer formation ([1]; 1.5 mg/kg p.o., indomethacin 20 mg/kg i.p., 5 hr): 36%
Ulcers Formed, Mean ± S.E.M. ([1]; 1.5 mg/kg p.o., indomethacin 20 mg/kg i.p., 5 hr, n=9, P < 0.05): 6.9 ± 0.9
% Inhibition of ulcer formation ([1]; 3.0 mg/kg p.o., indomethacin 20 mg/kg i.p., 5 hr): 52%
Ulcers Formed, Mean ± S.E.M. ([1]; 3.0 mg/kg p.o., indomethacin 20 mg/kg i.p., 5 hr, n=9, P < 0.01): 5.0 ± 1.0
% Inhibition of ulcer formation ([1]; 6.0 mg/kg p.o., indomethacin 20 mg/kg i.p., 5 hr): 61%
Ulcers Formed, Mean ± S.E.M. ([1]; 6.0 mg/kg p.o., indomethacin 20 mg/kg i.p., 5 hr, n=8, P < 0.01): 4.1 ± 0.9
times less potent than 2-(3-hydroxy-3-methyloctyl)-5-oxocyclopentaneheptanoic acid ([1]; ED50 comparison, p.o., indomethacin-induced ulcers): 27 times
ED50 [1, 8]: 3 mg/kg
reduction of the ulcerogenic activity of indomethacin ([5]; rats, Lee et al. 1971, dose relative to usual therapeutic dose): proved to be effective but only when administered at does much higher than their usual therapeutic dose

CCCCC[C@H](O)/C=C/[C@H]1[C@H](O)CC(=O)[C@@H]1CCCCCCC(=O)O [prostaglandin E1]
diarrheal effect (diarrheal effect): diarrheal effect associated with larger doses
effect on gastric acid secretion (gastric acid secretion [6]): inhibit gastric acid secretion

CCCCC[C@H](O)/C=C/[C@H]1[C@H](O)CC(=O)[C@@H]1C/C=C\CCCC(=O)O [prostaglandin E2]
test animals with diarrhea (diarrhea; 43 mg/kg peroral): 50%
stability [4]: relatively unstable
dehydration of the 11-hydroxy group ([4]; under both basic and acidic conditions): participates readily in dehydration reactions under both basic and acidic conditions

trans-2-(3-Methyl-3-oxooctyl)-5-oxocyclopentaneheptanoic acid
Relative Potency ± S.E.M. [1]: 0.43 ± 0.14
